Results on three molecules are retold here after patent US20240173333A1, “Treating Alagille Syndrome (ALGS)” (priority 2022, published 2024).

The nature of data set [1]: Water content and water uptake of crystal modification 1 with relative humidity. The format is physicochemical. From the text:
Crystal modification 1 contains void volumes that are capable of containing up to about 2 moles of water associated with the crystal per mole of odevixibat, depending on the relative humidity. This form is therefore formally a channel hydrate. At about 30% relative humidity, however, crystal modification 1 contains a substantially stoichiometric amount of about 1.5 moles of water per mole of organic compound and is thus a sesquihydrate. The substantially stoichiometric amount of water is considered advantageous, as the water content of the crystals remains substantially constant even with humidity changes within the normal relative humidity range of about 30% to about 70% RH.
Whereas crystal modification 1 is a sesquihydrate containing about 3.5% (w/w) water at about 30% relative humidity (based on the total crystal weight), it has been observed that the crystal can take up an additional 1.5% (w/w) water when the humidity is increased up to 95% RH. The sorption and desorption of this additional water is fully reversible. The additional water may be adsorbed on the surface or may further fill the channels of the structure. […]

The subject of data set [2] is patients with ALGS. Particulars: cited from earlier work.

Where two headings read alike, the source gives them in different places.

In the case of `CCCCC1(CCCC)CN(c2ccccc2)c2cc(SC)c(OCC(=O)N[C@@H](C(=O)N[C@@H](CC)C(=O)O)c3ccc(O)cc3)cc2S(=O)(=O)N1` [crystal modification 1], the “water content (based on the total crystal weight)” value in data set [1] (about 30% relative humidity) was “about 3.5 % (w/w)”. Moreover, in data set [1] (humidity increased up to 95% RH, fully reversible), the “additional water taken up” value is 1.5 % (w/w).

For the molecule `CCCCC1(CCCC)CS(=O)(=O)c2ccc(N(C)C)cc2[C@@H](c2ccc(OCc3ccc(C[N+]45CCN(CC4)CC5)cc3)cc2)[C@H]1O` [maralixibat], the transaminase levels entry in data set [2] (patients with ALGS) is on record as “Elevations in transaminase levels have been reported”.

Turning to cholestyramine, the transaminase levels entry in data set [2] (human, in vivo) was “Elevations in transaminase levels have been reported”.
